# Laboratory results as given in paper PMC9967275, “Screening the Pathogen Box to Discover and Characterize New Cruzain and TbrCatL Inhibitors” (Pathogens, 2023).
# What was measured:
# cruzain = cruzain (Trypanosoma cruzi, UniProt P25779); experiment: biochemical; settings: for Cruzain 0’ Inhibition / Cruzain 10’ Inhibition: sheet "Screening results"
# Experimental: (§1) Allison Doak and Prof. Brian Shoichet (University of California San Francisco, San Francisco, CA, USA) and Prof. Conor Caffrey (University of California San Diego, San Diego, CA, USA) generously provided recombinant cruzain and TbrCatL, respectively. In vitro activity of proteases cruzain and TbrCatL was assayed as previously described. Briefly, enzyme activity was measured by monitoring the cleavage of the fluorogenic substrate […] (Z-FR-AMC) at 25 °C. Fluorescence was monitored at 340/440 nm (excitation/emission) over 5–7 min in a Synergy2 Biotek plate reader. […] DMSO and 1 μM E-64 were employed as negative and positive controls, respectively, in all assays. Two conditions were employed for both enzymes: 10′ pre-incubation of the enzyme in the presence of the compound (10′ inc) and no pre-incubation (0′). Reported values correspond to the mean and standard error of the mean (SEM) and all analyses were performed using GraphPad Prism 6.0.
# (§2) For the initial screening, compounds were assayed at 5 μM. […] IC50 curves were obtained from a non-linear fit of at least seven distinct compound concentrations, in triplicate. Reported IC50 values are the mean and SEM of two independent measurements.
# TbrCatL = biological target: T1, TbrCatL (Trypanosoma brucei rhodesiense, UniProt Q95PM0); experiment: TbrCatL enzymatic inhibition assay (cleavage of fluorogenic substrate Z-FR-AMC); format: biochemical; settings: for TbrCatL 0’ Inhibition / TbrCatL 10’ Inhibition: sheet "Screening results"
# T1 construct: Conor Caffrey (University of California San Diego)
# Experimental: as §1, §2
# [1] = 0’ (no pre-incubation), sheet Screening results
# [2] = 10’ (pre-incubation), sheet Screening results
# [3] = 0’ (pre-incubation time), Pathogen Box screening results
# [4] = 10’ (pre-incubation time), Pathogen Box screening results
# 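Further: at 5 µM compound concentration.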
# cruzain, sequence (P25779 123-337 limits assumed): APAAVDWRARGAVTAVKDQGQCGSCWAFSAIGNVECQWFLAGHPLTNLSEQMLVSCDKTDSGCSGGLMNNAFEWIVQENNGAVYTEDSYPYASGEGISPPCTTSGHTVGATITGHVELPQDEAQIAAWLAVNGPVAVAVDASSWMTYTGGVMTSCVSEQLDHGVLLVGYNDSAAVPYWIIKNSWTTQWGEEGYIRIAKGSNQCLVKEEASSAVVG
# T1 sequence (Q95PM0 entry or part of it): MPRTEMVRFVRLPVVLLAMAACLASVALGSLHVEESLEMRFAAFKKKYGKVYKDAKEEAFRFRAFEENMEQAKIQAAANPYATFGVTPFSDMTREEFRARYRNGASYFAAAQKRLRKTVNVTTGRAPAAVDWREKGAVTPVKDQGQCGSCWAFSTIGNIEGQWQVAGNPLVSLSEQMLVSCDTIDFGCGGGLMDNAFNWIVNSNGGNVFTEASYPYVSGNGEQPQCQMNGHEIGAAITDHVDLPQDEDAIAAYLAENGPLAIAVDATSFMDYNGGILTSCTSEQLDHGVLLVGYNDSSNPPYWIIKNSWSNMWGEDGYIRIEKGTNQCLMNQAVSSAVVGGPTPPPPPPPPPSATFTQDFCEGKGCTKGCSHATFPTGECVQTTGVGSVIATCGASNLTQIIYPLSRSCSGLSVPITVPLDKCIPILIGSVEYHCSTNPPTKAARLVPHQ
SMILES,Cruzain Inhibition 0’ (cruzain; [1]) [%],Cruzain Inhibition 10’ (cruzain; [2]) [%],TbrCatL Inhibition 0’ (TbrCatL; [1]) [%],TbrCatL Inhibition 10’ (TbrCatL; [2]) [%],Cruzain 0’ Inhibition (cruzain; 0’ (pre-incubation time)) [%],Cruzain 10’ Inhibition (cruzain; 10’ (pre-incubation time)) [%],TbrCatL 0’ Inhibition (TbrCatL; 0’ (pre-incubation time)) [%],TbrCatL 10’ Inhibition (TbrCatL; 10’ (pre-incubation time)) [%],further results
CC1CCCN(C(=O)C(C)Nc2cc(Cl)ccc2N2CCOCC2)C1 (stereo not shown) [MMV020388],3.4,4.5,3.3,0.2,–,–,–,–,–
CC(C)C(C(=O)Nc1ccc(S(=O)(=O)N(C)C)cc1)c1ccc(Cl)cc1 (stereo not shown) [MMV020391],-1.5,2,-3.4,-2.5,–,–,–,–,–
Cc1ccc(Oc2ccc(NC(=O)CNc3ccccc3N3CCCC3=O)cc2)cc1 [MMV020512],0.2,8,-3.2,-0.2,–,–,–,–,–
COc1ccccc1CNC(=O)c1cc(C2CC2)nc2c1cnn2C(C)C [MMV020517],4,7,2.7,9,–,–,–,–,–
Cc1cc2ccccc2n1CC(=O)N1CC(C(=O)N2CCCCC2)Oc2ccccc21 (stereo not shown) [MMV020520],4.7,3.4,1.6,10,–,–,–,–,–
O=C(NC1CC1)c1ccc(N2CCOc3ccc(Cl)cc32)s1 [MMV020537],18,9,8,6,–,–,–,–,–
CC(C)C(NC(=O)Cc1cccc2ccccc12)C(=O)Nc1cccc(C#N)c1 (stereo not shown) [MMV020591],-1.7,-0.4,-8,-3.7,–,–,–,–,–
Cc1noc(C)c1C(=O)N1CCCC(c2[nH]c3c(C)cccc3c2-c2ccncc2)C1 (stereo not shown) [MMV020623],0.3,5,-5.6,4,–,–,–,–,–
COc1ccc(-c2cncc3ccc(C(=O)NCCCn4ccnc4)nc23)cc1 [MMV020670],–,–,–,–,-2.2,-17,-3,-13,–
COc1ccc(Cl)cc1NC(=O)CN(C)C(=O)c1cnn(-c2ccccc2)n1 [MMV020710],-11,-36,-10,-99,–,–,–,–,–
CC(C)(C)c1cc(C(=O)Nc2cccnc2)cc(C(=O)Nc2cccnc2)c1 [MMV020982],1.3,-0.5,-6,-7,–,–,–,–,–
c1ccc(-c2nc(NC3CCCCC3)cc(C3CC3)n2)nc1 [MMV021013],–,–,–,–,–,–,–,–,Cruzain Inhibition 0’ (cruzain; [3]): 9%; Cruzain Inhibition 10’ (cruzain; [4]): 16%; TbrCatL Inhibition 0’ (TbrCatL; [3]): -1.4%; TbrCatL Inhibition 10’ (TbrCatL; [4]): 19%
CO/C=C(\C(=O)OC)c1ccccc1Oc1cc(Oc2ccccc2C#N)ncn1 [MMV021057],1.6,6.5,1.9,9,–,–,–,–,–
Cc1cc(NCC(C)C)c2[nH]nc(-c3ccccc3)c2n1 [MMV021375],–,–,–,–,18,23,17,20,–
Cc1cc(NCCc2ccccc2)nc(NC(=N)Nc2ccc(Cl)cc2)n1 [MMV021660],–,–,–,–,11,14,-3.6,7,–
CN1CCC(NCc2cccc(-c3ccc(S(=O)(=O)NCc4ccccc4)cc3)c2)CC1 [MMV022029],–,–,–,–,-2.3,29,-8,14,–
CCN(CC)CCCN1CCN(C(=O)c2cccc(-c3noc(C(F)(F)F)n3)c2)CC1 [MMV022236],–,–,–,–,7,16,7.4,16,–
O=C(Nc1ccc(N2CCNCC2)cc1)c1ccn2ncc(-c3cccc(Cl)c3)c2n1 [MMV022478],–,–,–,–,15,18,1.7,10,–
c1ccc2c(c1)CN(CC1CC1)CC1(CCN(Cc3c[nH]c4cnccc34)CC1)O2 [MMV023183],–,–,–,–,3.5,15,6,1.8,–
Cc1nc(-c2cccc(NCc3ccccc3)c2)[nH]c1C [MMV023227],–,–,–,–,2,15,-7,22,–

SMILES,Cruzain Inhibition 0’ (cruzain; [1]) [%],Cruzain Inhibition 10’ (cruzain; [2]) [%],TbrCatL Inhibition 0’ (TbrCatL; [1]) [%],TbrCatL Inhibition 10’ (TbrCatL; [2]) [%],Cruzain 0’ Inhibition (cruzain; 0’ (pre-incubation time)) [%],Cruzain 10’ Inhibition (cruzain; 10’ (pre-incubation time)) [%],TbrCatL 0’ Inhibition (TbrCatL; 0’ (pre-incubation time)) [%],TbrCatL 10’ Inhibition (TbrCatL; 10’ (pre-incubation time)) [%],further results
Nc1nccc2ccc(-c3ccc4nccn4c3)cc12 [MMV023233],–,–,–,–,11,8,0.7,7,–
Nc1ncc(-c2cn[nH]c2)cc1-c1nc2cc(Cl)cnc2[nH]1 [MMV023370],–,–,–,–,-3.5,8,3.3,-1.5,–
O=C(NC1CCN(c2ccnc3ccccc23)C1)c1cccc(C(F)(F)F)c1 (stereo not shown) [MMV023388],–,–,–,–,8,14,10,13,–
NS(=O)(=O)c1cccc(-c2ccc3ncc(N4CCOCC4)nc3c2)c1 [MMV023860],–,–,–,–,-5.3,28,-1.3,14,–
CC(C)(C)c1cc(C(=O)N2CCN(c3nccnc3C#N)CC2)n(Cc2ccccc2)n1 [MMV023949],–,–,–,–,-0.2,6,12,-3,–
O=C(Nc1cccc(-c2ccc(NCCCN3CCCC3)nc2)c1)c1ccccc1 [MMV023953],–,–,–,–,8,11,12,7,–
c1cncc(NCc2ccc(-c3cc4ccncc4cc3OC3CCNCC3)s2)c1 [MMV023969],–,–,–,–,29,31,19,17,–
COc1ccc(-c2cnc3ccc(N4CCCC4)nn23)cc1OC [MMV023985],–,–,–,–,-3.2,-13,-7,-1,–
O=C(Nc1ccccc1)c1ccc(-c2cc3ccncc3cc2OC2CCNCC2)s1 [MMV024035],–,–,–,–,5,-6.5,-3,-5,–
NS(=O)(=O)c1cncc(-c2ccc3nccc(-c4cn[nH]c4)c3n2)c1 [MMV024101],–,–,–,–,7,26,6,34,–
Cc1ccc(S(=O)(=O)n2cc(-c3ccnc(N)c3)c3cc(Br)cnc32)cc1 [MMV024114],–,–,–,–,-9,15,-5,1.6,–
CN(C)CCNC(=O)N1CCCN(c2ncnc3cc(-c4ccccc4)sc23)CC1 [MMV024195],–,–,–,–,-3.2,1.9,1.1,-1.4,–
Cc1ccc2[nH]c(C3CCCNC3)c(-c3ccncc3)c2c1 (stereo not shown) [MMV024311],–,–,–,–,-7.4,15,-12,12,–
O=C(NC1CC1)c1ccc(N2CCC(Cc3ccccc3)CC2)nc1 [MMV024397],3,6,2.6,2.6,–,–,–,–,–
O=C(Nc1cccc(Cl)c1)c1cnc(N2CCN(c3ccncc3)CC2)c(Cl)c1 [MMV024406],–,–,–,–,17,25,3,20,–
CN(C(=O)c1cc2c(-c3cncnc3)cccc2[nH]1)c1ccccc1 [MMV024443],–,–,–,–,5,2.7,-4.6,-3.8,–
Cc1cccc(C(=O)Nc2ccnc(N(C)C3CCN(CC(C)C)CC3)c2)c1 [MMV024829],–,–,–,–,9,7,4,7,–
O=C(Nc1ccc(N2CCNCC2)nc1)c1oc(-c2ccccc2)nc1C(F)(F)F [MMV024937],–,–,–,–,5.6,14,20,23,–
CS(=O)(=O)c1cccc(-c2cnc3[nH]cc(-c4ccc(CCC(=O)O)cc4)c3c2)c1 [MMV026020],12,17,15,20,–,–,–,–,–
Nc1nccc2ccc(Oc3ccncc3)cc12 [MMV026313],–,–,–,–,–,–,–,–,Cruzain Inhibition 0’ (cruzain; [3]): -0.8%; Cruzain Inhibition 10’ (cruzain; [4]): 8%; TbrCatL Inhibition 0’ (TbrCatL; [3]): 0.4%; TbrCatL Inhibition 10’ (TbrCatL; [4]): 19%
